pIC50: −log10 of the molar value.
Assays:
[1] = molecular target: T1, BA/F3-FLT3-ITD + D835Y cells (Homo sapiens, UniProt P36888, D835Y, cells depend on it, form not given); assay: Cell proliferation assay (CellTiter-Glo), engineered BA/F3 cells; format: cell-based, murine; conditions: BaF3 FLT3 ITD/D835Y cells, 3d-Growth; read-out: BaF3_FLT3 ITD/D835Y 3d-Growth: IC50
T1 sequence (P36888 1-993 D835Y): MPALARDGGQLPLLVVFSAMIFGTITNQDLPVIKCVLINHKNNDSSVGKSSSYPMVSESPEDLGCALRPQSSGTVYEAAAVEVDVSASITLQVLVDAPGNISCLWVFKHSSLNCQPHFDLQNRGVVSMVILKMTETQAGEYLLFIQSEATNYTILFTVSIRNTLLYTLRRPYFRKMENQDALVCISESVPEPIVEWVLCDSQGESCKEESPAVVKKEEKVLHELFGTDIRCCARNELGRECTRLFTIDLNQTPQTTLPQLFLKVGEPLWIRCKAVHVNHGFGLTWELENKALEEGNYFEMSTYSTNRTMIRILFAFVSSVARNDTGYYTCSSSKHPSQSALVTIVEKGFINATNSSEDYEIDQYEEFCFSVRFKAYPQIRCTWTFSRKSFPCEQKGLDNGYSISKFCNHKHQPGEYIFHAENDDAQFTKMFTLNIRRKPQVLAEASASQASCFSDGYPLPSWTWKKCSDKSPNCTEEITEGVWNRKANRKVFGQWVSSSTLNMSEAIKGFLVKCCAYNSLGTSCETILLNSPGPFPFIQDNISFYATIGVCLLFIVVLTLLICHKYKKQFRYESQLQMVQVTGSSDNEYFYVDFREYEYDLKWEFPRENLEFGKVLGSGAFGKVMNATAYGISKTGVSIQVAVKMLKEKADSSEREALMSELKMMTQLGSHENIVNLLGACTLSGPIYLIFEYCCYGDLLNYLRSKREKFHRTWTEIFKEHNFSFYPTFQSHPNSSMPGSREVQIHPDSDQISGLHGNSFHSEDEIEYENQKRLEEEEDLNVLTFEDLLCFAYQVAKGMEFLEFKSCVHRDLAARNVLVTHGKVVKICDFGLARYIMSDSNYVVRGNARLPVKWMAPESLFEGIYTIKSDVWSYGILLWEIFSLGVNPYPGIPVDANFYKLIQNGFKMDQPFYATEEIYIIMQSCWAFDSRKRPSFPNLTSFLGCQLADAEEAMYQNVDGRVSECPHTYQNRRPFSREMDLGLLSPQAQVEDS
How it was run: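 MOLM-14 AML cells (endogenous FLT3 ITD, AC220-selected D835Y or F691L variants) or murine Ba/F3 expressing full-length FLT3 ITD/D835Y, without IL-3 for FLT3 dependence, 1×10^4 cells/well. Eight-point 1:3 series from 1 μM final, 0.2% DMSO, 3 days at 37 °C. CellTiter-Glo luminescence (ATP) gave IC50.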

c-KIT = molecular target: T2, c-KIT (Homo sapiens, UniProt P10721); assay: AlphaScreen kinase assay with recombinant enzyme, c-KIT; format: biochemical; conditions: 100ATP, 8pt, GMean
T2 construct: purchased Millipore 14-559K
How it was run: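 Inhibition was measured as a drop in AlphaScreen signal arising from phosphotyrosine-bead capture of a biotinylated poly(Glu4-Tyr) peptide (30 nM) phosphorylated by recombinant kinase. For IC50 work the stated final concentration was 10 μM for the FLT3 mutants and 100 μM for c-KIT.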

T2 sequence (P10721 26-976): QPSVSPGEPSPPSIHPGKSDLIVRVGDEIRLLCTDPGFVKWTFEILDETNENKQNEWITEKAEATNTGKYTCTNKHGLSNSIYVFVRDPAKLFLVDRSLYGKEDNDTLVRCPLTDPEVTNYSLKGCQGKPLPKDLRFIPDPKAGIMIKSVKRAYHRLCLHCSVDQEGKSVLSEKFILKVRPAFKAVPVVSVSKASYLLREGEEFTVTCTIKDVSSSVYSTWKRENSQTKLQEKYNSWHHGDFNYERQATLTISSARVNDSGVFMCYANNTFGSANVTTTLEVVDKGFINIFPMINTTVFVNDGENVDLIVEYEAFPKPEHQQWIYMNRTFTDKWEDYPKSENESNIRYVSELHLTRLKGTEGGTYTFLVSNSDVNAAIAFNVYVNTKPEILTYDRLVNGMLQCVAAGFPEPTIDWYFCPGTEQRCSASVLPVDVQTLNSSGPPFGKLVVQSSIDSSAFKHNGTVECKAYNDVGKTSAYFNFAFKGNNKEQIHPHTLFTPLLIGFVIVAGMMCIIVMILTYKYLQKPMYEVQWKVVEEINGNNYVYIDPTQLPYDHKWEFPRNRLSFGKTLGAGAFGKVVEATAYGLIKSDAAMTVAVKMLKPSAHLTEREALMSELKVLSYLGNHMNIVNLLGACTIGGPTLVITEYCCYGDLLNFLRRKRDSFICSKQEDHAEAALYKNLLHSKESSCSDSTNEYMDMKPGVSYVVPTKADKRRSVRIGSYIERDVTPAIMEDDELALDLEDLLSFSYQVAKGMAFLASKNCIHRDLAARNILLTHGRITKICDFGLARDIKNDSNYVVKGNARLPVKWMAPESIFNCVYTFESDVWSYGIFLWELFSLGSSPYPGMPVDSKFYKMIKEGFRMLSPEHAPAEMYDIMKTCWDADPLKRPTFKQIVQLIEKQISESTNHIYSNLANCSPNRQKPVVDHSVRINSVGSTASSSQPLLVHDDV

SMILES | GI50 [1] [µM] | pIC50 (c-KIT)
CC(=O)NC1CCN(C(=O)c2cccc(-c3cnc4[nH]c(-c5ccc(F)cc5)cc4c3)c2)CC1 [Compound P-0001, N-[1-[3-[2-(4-fluorophenyl)-1H-pyrrolo[2,3-b]pyridin-5-yl]benzoyl]-4-piperidyl]acetamide] | 0.0001 to 10 | 5.00 to 10.00
CON(C)C(=O)c1cccc(-c2cnc3[nH]c(-c4ccccc4)cc3c2)c1 [Compound P-0002, N-methoxy-N-methyl-3-(2-phenyl-1H-pyrrolo[2,3-b]pyridin-5-yl)benzamide] | 0.0001 to 10 | 5.00 to 10.00
NC1CN(C(=O)c2n[nH]c3ccc(-c4cnc5[nH]c(-c6ccccc6)cc5c4)cc23)C1 [Compound P-0029, (3-aminoazetidin-1-yl)-[5-(2-phenyl-1H-pyrrolo[2,3-b]pyridin-5-yl)-1H-indazol-3-yl]methanone] | 0.0001 to 10 | 5.00 to 10.00
CCNC(=O)NC1CCN(C(=O)c2cccc(-c3cnc4[nH]c(-c5ccccc5)cc4c3)n2)CC1 [Compound P-0031, 1-ethyl-3-[1-[6-(2-phenyl-1H-pyrrolo[2,3-b]pyridin-5-yl)pyridine-2-carbonyl]-4-piperidyl]urea] | 0.0001 to 10 | 5.00 to 10.00
NC1CCN(c2cccc3ccc(-c4cnc5[nH]c(-c6ccccc6)cc5c4)nc23)CC1 [Compound P-0034, 1-[2-(2-phenyl-1H-pyrrolo[2,3-b]pyridin-5-yl)-8-quinolyl]piperidin-4-amine] | 0.0001 to 10 | 5.00 to 10.00
O=C(NC1CCNCC1)c1n[nH]c2ccc(-c3cnc4[nH]c(-c5ccccc5)cc4c3)cc12 [Compound P-0039, 5-(2-phenyl-1H-pyrrolo[2,3-b]pyridin-5-yl)-N-(4-piperidyl)-1H-indazole-3-carboxamide] | 0.0001 to 10 | 5.00 to 10.00
O=C(c1cccc(-c2cnc3[nH]c(-c4ccccc4)cc3c2)n1)C1CCNCC1 [Compound P-0043, [6-(2-phenyl-1H-pyrrolo[2,3-b]pyridin-5-yl)-2-pyridyl]-(4-piperidyl)methanone] | 0.0001 to 10 | 5.00 to 10.00
O=C(NC1CCNC1)c1cccc(-c2cnc3[nH]c(-c4ccccc4)cc3c2)n1 (stereo not drawn) [Compound P-0045, 6-(2-phenyl-1H-pyrrolo[2,3-b]pyridin-5-yl)-N-pyrrolidin-3-yl-pyridine-2-carboxamide] | 0.0001 to 10 | 5.00 to 10.00
NC1CCC(C(=O)N2Cc3c(cccc3-c3cnc4[nH]c(-c5ccccc5)cc4c3)C2=O)C1 (stereo not drawn) [Compound P-0047, 2-(3-aminocyclopentanecarbonyl)-4-(2-phenyl-1H-pyrrolo[2,3-b]pyridin-5-yl)isoindolin-1-one] | 0.0001 to 10 | 5.00 to 10.00
c1ccc(-c2cc3cc(-c4ccc5[nH]nc(NC6CNC6)c5c4)cnc3[nH]2)cc1 [Compound P-0053, N-(azetidin-3-yl)-5-(2-phenyl-1H-pyrrolo[2,3-b]pyridin-5-yl)-1H-indazol-3-amine] | 0.0001 to 10 | 5.00 to 10.00
c1ccc(-c2cc3cc(-c4ccc5[nH]nc(NC6CCNCC6)c5c4)cnc3[nH]2)cc1 [Compound P-0056, 5-(2-phenyl-1H-pyrrolo[2,3-b]pyridin-5-yl)-N-(4-piperidyl)-1H-indazol-3-amine] | 0.0001 to 10 | 5.00 to 10.00
CN(C(=O)c1cccc(-c2cnc3[nH]c(-c4ccccc4)cc3c2)n1)C1CCNC1 (stereo not drawn) [Compound P-0076, N-methyl-6-(2-phenyl-1H-pyrrolo[2,3-b]pyridin-5-yl)-N-pyrrolidin-3-yl-pyridine-2-carboxamide] | 0.0001 to 10 | –
CNC1CCCN(C(=O)c2cccc(-c3cnc4[nH]c(-c5ccccc5)cc4c3)n2)C1 (stereo not drawn) [Compound P-0080, [3-(methylamino)-1-piperidyl]-[6-(2-phenyl-1H-pyrrolo[2,3-b]pyridin-5-yl)-2-pyridyl]methanone] | 0.0001 to 10 | –
CC1(N)CCN(C(=O)c2cccc(-c3cnc4[nH]c(-c5ccccc5)cc4c3)n2)CC1 [Compound P-0081, (4-amino-4-methyl-1-piperidyl)-[6-(2-phenyl-1H-pyrrolo[2,3-b]pyridin-5-yl)-2-pyridyl]methanone] | 0.0001 to 10 | –
CC1(N)CCCN(C(=O)c2cccc(-c3cnc4[nH]c(-c5ccccc5)cc4c3)n2)C1 (stereo not drawn) [Compound P-0082, (3-amino-3-methyl-1-piperidyl)-[6-(2-phenyl-1H-pyrrolo[2,3-b]pyridin-5-yl)-2-pyridyl]methanone] | 0.0001 to 10 | –
N[C@@H]1CN(C(=O)c2cccc(-c3cnc4[nH]c(-c5ccccc5)cc4c3)n2)CC12CC2 [Compound P-0083, [(7S)-7-amino-5-azaspiro[2.4]heptan-5-yl]-[6-(2-phenyl-1H-pyrrolo[2,3-b]pyridin-5-yl)-2-pyridyl]methanone] | 0.0001 to 10 | –

The remaining lines, values ahead:

GI50 [1] [µM] | pIC50 (c-KIT) | SMILES
0.0001 to 10 | 5.00 to 10.00 | CNC(=O)C1CCN(C(=O)c2cccc(-c3cnc4[nH]c(-c5ccccc5)cc4c3)n2)CC1 [Compound P-0030, N-methyl-1-[6-(2-phenyl-1H-pyrrolo[2,3-b]pyridin-5-yl)pyridine-2-carbonyl]piperidine-4-carboxamide]
0.0001 to 10 | 4.30 to 5.00 | CS(=O)(=O)NC1CCN(C(=O)c2cccc(-c3cnc4[nH]c(-c5ccccc5)cc4c3)n2)CC1 [Compound P-0032, N-[1-[6-(2-phenyl-1H-pyrrolo[2,3-b]pyridin-5-yl)pyridine-2-carbonyl]-4-piperidyl]methanesulfonamide]
0.0001 to 10 | 5.00 to 10.00 | Cc1ccc(-c2cnc3[nH]c(-c4ccccc4)cc3c2)nc1C(=O)N1CCC(N)CC1 [Compound P-0033, (4-amino-1-piperidyl)-[3-methyl-6-(2-phenyl-1H-pyrrolo[2,3-b]pyridin-5-yl)-2-pyridyl]methanone]
0.0001 to 10 | 5.00 to 10.00 | Cc1ccc(-c2cnc3[nH]c(-c4ccccc4)cc3c2)cc1C(=O)N1CCC(N)CC1 [Compound P-0035, (4-amino-1-piperidyl)-[2-methyl-5-(2-phenyl-1H-pyrrolo[2,3-b]pyridin-5-yl)phenyl]methanone]
0.0001 to 10 | 5.00 to 10.00 | N[C@H]1CCN(C(=O)c2cccc(-c3cnc4[nH]c(-c5ccccc5)cc4c3)c2)C1 [Compound P-0036, [(3S)-3-aminopyrrolidin-1-yl]-[3-(2-phenyl-1H-pyrrolo[2,3-b]pyridin-5-yl)phenyl]methanone]
0.0001 to 10 | 5.00 to 10.00 | NC1CCN(C(=O)c2cc(-c3cnc4[nH]c(-c5ccccc5)cc4c3)ccn2)CC1 [Compound P-0038, (4-amino-1-piperidyl)-[4-(2-phenyl-1H-pyrrolo[2,3-b]pyridin-5-yl)-2-pyridyl]methanone]
0.0001 to 10 | 5.00 to 10.00 | CNC1CCN(C(=O)c2cccc(-c3cnc4[nH]c(-c5ccccc5)cc4c3)n2)CC1 [Compound P-0041, [4-(methylamino)-1-piperidyl]-[6-(2-phenyl-1H-pyrrolo[2,3-b]pyridin-5-yl)-2-pyridyl]methanone]
0.0001 to 10 | 5.00 to 10.00 | NC1CCN(C(=O)c2c[nH]c3ccc(-c4cnc5[nH]c(-c6ccccc6)cc5c4)cc23)CC1 [Compound P-0042, (4-amino-1-piperidyl)-[5-(2-phenyl-1H-pyrrolo[2,3-b]pyridin-5-yl)-1H-indol-3-yl]methanone]
0.0001 to 10 | 5.00 to 10.00 | CNC1CCN(C(=O)c2n[nH]c3ccc(-c4cnc5[nH]c(-c6ccccc6)cc5c4)cc23)CC1 [Compound P-0044, [4-(methylamino)-1-piperidyl]-[5-(2-phenyl-1H-pyrrolo[2,3-b]pyridin-5-yl)-1H-indazol-3-yl]methanone]
0.0001 to 10 | 5.00 to 10.00 | N[C@H]1CCN(C(=O)c2cc(-c3cnc4[nH]c(-c5ccccc5)cc4c3)ccn2)C1 [Compound P-0046, [(3S)-3-aminopyrrolidin-1-yl]-[4-(2-phenyl-1H-pyrrolo[2,3-b]pyridin-5-yl)-2-pyridyl]methanone]
50 to 100 | – | N[C@H]1CCN(C(=O)c2csc(-c3cnc4[nH]c(-c5ccccc5)cc4c3)n2)C1 [Compound P-0048, [(3S)-3-aminopyrrolidin-1-yl]-[2-(2-phenyl-1H-pyrrolo[2,3-b]pyridin-5-yl)thiazol-4-yl]methanone]

Source: patent US9938273B2 (Plexxikon Inc., priority 2015, dated 2018)
